The nature of this data set: Human HepG2 cell viability assay in 384 well format. Also noted: dose 125 nL, time 70.5 hour; concentration not given beside the values. The class given is toxicity, cell-based. To be noted: HepG2 cells, read-out: Inhibition.

`O=C(CCC(=O)Nc1nnc(C2CCCCC2)s1)NCC1CCCO1` (stereo not drawn): the cytotoxicity at 70.5 h is -12.1%.
As for `COC(=O)COn1c(SC(C)C)nc2ccccc2c1=O`, the figure is -3.63%; as for `Cn1c2ccc(F)cc2c2ncn(CCCN(CCO)CCO)c(=O)c21`, 18.9%; as for `CC(C)C[C@H](NC(=O)N1CCC(Cc2ccccc2)CC1)C(=O)O`, -5.66%.
To `COc1ccc(-c2nc(C#N)c(N(C)C)o2)cc1OC` belongs -5.52%; to `CC(C)C[C@H](NC(=O)Nc1ccc(F)c(Cl)c1)C(=O)O`, 6.99%; to `CCN1C(=O)C(C#N)=C(C)/C(=C/C2=Cc3ccccc3OC2)C1=O`, 7.28%.
As to `COC(=O)COn1c(SC)nc2ccccc2c1=O`, the cytotoxicity at 70.5 h is -9.2%.
For the compound `CCS(=O)(=O)c1nnc([C@@H](N)Cc2ccccc2)o1`, the cytotoxicity at 70.5 h stood at 16.2%.
Take `CC(C)NC(=O)N(Cc1cc(O)nc2ccccc12)C(C)C`: the cytotoxicity at 70.5 h is -7.39%.
As for `COCCN(Cc1cc(O)nc2ccccc12)C(=O)NC(C)C`, the figure is -14.7%; as for `CC(C)Cc1nc(OCC#N)c(C#N)c2c1CCC2`, -2.63%; as for `COCCCN(Cc1cc(O)nc2ccccc12)C(=O)NC(C)C`, -13.5%.
As for `O=C(CC1NC(N2CCc3ccccc32)=NC1=O)Nc1ccc(Cl)cc1` (stereo not drawn), the cytotoxicity at 70.5 h was -11.1%.
Regarding `COc1ccc(-c2nc(C#N)c(N(C)C)o2)cc1S(=O)(=O)N(C)C`, the cytotoxicity at 70.5 h was -11.8%.
As to `O=C(CC1NC(N2CCc3ccccc32)=NC1=O)Nc1ccccc1` (stereo not drawn), the cytotoxicity at 70.5 h was -5.06%.
Regarding `COc1cccc(-c2nc(C)c(C(=O)N[C@H](CO)CCSC)s2)c1`, the cytotoxicity at 70.5 h was -5.73%.
Turning to `Cc1cc(C)n2c(CCCNS(=O)(=O)c3ccccc3)nnc2n1`, the cytotoxicity at 70.5 h is -7.9%.
With `Cc1sc(NS(=O)(=O)c2ccccc2)nc1C(=O)NC1CC1`, the cytotoxicity at 70.5 h was -1.95%.
In the case of `Cc1cc(C)n2c(CCCNS(=O)(=O)c3ccc(F)cc3)nnc2n1`, the cytotoxicity at 70.5 h was -8.75%.
As for `CCc1ccc2c(C3CN(S(C)(=O)=O)C3)ncn2c1`, the figure is 9.29%.
On to `Cc1nc(-c2cnn(C)c2)nc2c1CN(C(=O)c1cccnc1)CC2`, for which the cytotoxicity at 70.5 h was -2.03%.
In the case of `Cc1nc(-c2cnn(C)c2)nc2c1CN(C(=O)c1cccn1C)CC2`, the cytotoxicity at 70.5 h turned out to be 1.91%.
As to `Cc1ncoc1C(=O)N1C[C@@H]2CN(CC3CC3)CCO[C@@H]2C1`, the cytotoxicity at 70.5 h was found to be 10.6%.
Consider `Cc1cccc(S(=O)(=O)N2CCCc3c(c(=O)n(C)n3C)C2)c1`, for which the cytotoxicity at 70.5 h was -9.39%.
For `CS(=O)(=O)N1CC(c2ncn3ccccc23)C1`, the cytotoxicity at 70.5 h was -9.83%.
`N[C@@H](Cc1ccccc1)c1nnc(S(=O)(=O)Cc2cccc(Cl)c2)o1`: the cytotoxicity at 70.5 h turned out to be 13.5%.
As for `CCN1CCC2(CC1)OCCN2C(=O)c1cc(Cl)c(OC)c(Cl)c1`, the cytotoxicity at 70.5 h is 8.67%.
On to `CN(C)CCNCCC(Cc1ccccc1)C1CCOC(C)(C)C1` (stereo not drawn), for which the cytotoxicity at 70.5 h is -8.7%.
As to `Cc1ccc(C(CCNCCN(C)C)C2CCOC(C)(C)C2)cc1` (stereo not drawn), the cytotoxicity at 70.5 h was -5.89%.
For the compound `CN(C)CCCNCCC(Cc1ccccc1)C1CCOC(C)(C)C1` (stereo not drawn), the cytotoxicity at 70.5 h amounted to 1.12%.
In the case of `CCN1CCO[C@@H]2CN(C(=O)c3cocn3)C[C@@H]2C1`, the cytotoxicity at 70.5 h worked out at 34.2%.
As for `O=C(c1ccc2ccc(N3CCN(CC4CC4)CC3)n2c1)N1CCCO1`, the cytotoxicity at 70.5 h was -5.05%.
Turning to `O=C([C@H]1CCS(=O)(=O)[C@@H]2CN(CCc3ccccc3)C[C@H]12)N1CCCC1`, the cytotoxicity at 70.5 h is -1.64%.
On to `O=C(c1cocn1)N1C[C@@H]2CN(CC3CC3)CCO[C@@H]2C1`, for which the cytotoxicity at 70.5 h was -1.55%.
As to `CC(C)N1CCc2ncn(C)c2C1C(=O)N1CCOCC1` (stereo not drawn), the cytotoxicity at 70.5 h was 5.22%.
Consider `COc1ccc(CN2C[C@@H]3CN(Cc4cccnc4)CCO[C@@H]3C2)cc1`, for which the cytotoxicity at 70.5 h was -9.13%.
In the case of `c1cc(CN2C[C@@H]3OCCN(CCN4CCCC4)[C@@H]3C2)cs1`, the cytotoxicity at 70.5 h is -8.5%.

Source of the values: ChEMBL document CHEMBL3507680, “University of Dundee, Gates Library screen for HepG2 cell viability”.
